Patent publication US20200247815A1, “PYRAZOLYL-CONTAINING TRICYCLIC DERIVATIVE, PREPARATION METHOD THEREFOR AND USE THEREOF” (Jiangsu Hansoh Pharmaceutical Group Co., Ltd., priority 2017, published 2020)

How the values were obtained:
ERK-2 kinase = target: T1, ERK-2 kinase (Homo sapiens, UniProt P28482); assay: Inhibition of ERK-2 kinase activity (LANCE Ultra TR-FRET); format: biochemical; conditions: ERK-2 enzyme 0.08 nM, ATP 38.15 μM
T1 construct: purchased Invitrogen PV3313
Method in brief: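 Recombinant ERK-2 (0.08 nM) with ULight-MBP peptide (0.5 μM) and ATP (38.15 μM) in Hepes pH 7.4 buffer, compound 100 nM to 0.005 nM final, 4% DMSO, 60 min at room temperature. Eu-anti-p-MBP TR-FRET (665/615 nm) read after EDTA stop; % inhibition versus DMSO and no-enzyme controls fitted 4-parameter for Abs_IC50.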

[1] = system: pancreatic cancer tumor cell Mia Paca 2; assay: Inhibition of tumor cell proliferation (CellTiter-Glo); format: cell-based; conditions: Homo sapiens, Miapaca-2 cell, 3-7 days
Description: The object of this test example is to determine the inhibition effect of the present compound on tumor cell proliferation activity. The inhibition activity of the compound on tumor cell proliferation was determined by CellTiter-Glo method, and the half inhibitory concentration IC50 of the compound for inhibiting cell proliferation activity was obtained, 50-100 μL of tumor cell suspension was inoculated in a 96-well cell culture plate with a density of 1˜5*10^4 cells/ml. The plate was incubated in an incubator for 16˜24 hours (37° C., 5% CO2). Solutions of test compounds at different concentrations obtained by gradient dilution were added to the cells in the plate. The plate was incubated in an incubator for 3-7 days (37° C., 5% CO2), 50˜100 μL of CellTiter-Glo reagent was added to each well. The plate was shaked for 10 minutes, and left to stand at room temperature for 10 minutes. The value of the chemiluminescence signal was determined by a microplate reader. The inhibition rate was calculated from the value of the chemiluminescence signal. IC50 of the compound was obtained by curve fitting based on the inhibition rate at different concentrations.
The inhibition effect of the present compound on pancreatic cancer tumor cell Mia Paca 2 proliferation activity was determined by the test, and the obtained IC50 value is shown in Table 2.

hERG potassium channel = target: T2, hERG potassium channel (Homo sapiens, UniProt Q12809); assay: hERG potassium channel inhibition activity test (Qpatch, CHO-hERG cells); format: cell-based
T2 construct: expressed in transfected cells; host or cells: CHO-hERG cells
T2 sequence (Q12809 whole entry): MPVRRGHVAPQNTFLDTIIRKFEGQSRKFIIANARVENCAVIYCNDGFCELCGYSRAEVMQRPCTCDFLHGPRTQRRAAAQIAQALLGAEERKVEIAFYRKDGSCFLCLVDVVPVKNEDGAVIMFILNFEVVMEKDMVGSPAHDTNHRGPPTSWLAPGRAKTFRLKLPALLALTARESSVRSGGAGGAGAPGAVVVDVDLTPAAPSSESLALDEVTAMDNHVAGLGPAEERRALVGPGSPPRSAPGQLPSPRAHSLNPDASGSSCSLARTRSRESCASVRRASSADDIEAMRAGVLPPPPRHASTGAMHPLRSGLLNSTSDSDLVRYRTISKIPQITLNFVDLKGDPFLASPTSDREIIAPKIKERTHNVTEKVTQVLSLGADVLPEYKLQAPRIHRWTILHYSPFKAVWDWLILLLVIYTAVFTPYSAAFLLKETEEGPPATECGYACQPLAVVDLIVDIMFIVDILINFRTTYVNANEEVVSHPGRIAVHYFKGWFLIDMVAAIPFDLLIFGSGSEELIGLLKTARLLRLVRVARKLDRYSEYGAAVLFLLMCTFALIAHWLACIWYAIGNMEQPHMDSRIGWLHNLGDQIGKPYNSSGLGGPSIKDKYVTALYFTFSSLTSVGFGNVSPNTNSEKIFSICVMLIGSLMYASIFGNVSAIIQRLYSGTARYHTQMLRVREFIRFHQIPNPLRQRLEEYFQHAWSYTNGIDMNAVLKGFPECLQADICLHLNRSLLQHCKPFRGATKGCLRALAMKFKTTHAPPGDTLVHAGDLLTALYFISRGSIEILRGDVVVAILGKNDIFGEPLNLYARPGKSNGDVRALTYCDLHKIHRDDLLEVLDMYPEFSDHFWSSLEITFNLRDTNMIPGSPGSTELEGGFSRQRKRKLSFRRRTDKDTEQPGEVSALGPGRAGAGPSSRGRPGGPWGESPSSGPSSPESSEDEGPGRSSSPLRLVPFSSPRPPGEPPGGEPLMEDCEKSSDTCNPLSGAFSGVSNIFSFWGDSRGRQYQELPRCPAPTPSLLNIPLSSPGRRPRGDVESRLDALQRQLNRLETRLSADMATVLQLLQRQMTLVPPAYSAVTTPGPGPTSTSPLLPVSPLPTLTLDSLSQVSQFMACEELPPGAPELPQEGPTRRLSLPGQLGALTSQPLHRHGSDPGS
Description: 4.1.1 CHO-hERG cells were cultured in a 175 cm2 culture flask. After the cell density reached 60˜80%, the culture solution was removed. The cells were washed with 7 mL of PBS once, and dissociated with 3 mL of Detachin.
4.1.2 After completion of dissociation, the cells were neutralized with 7 mL of culture solution. The solution was centrifuged, and the supernate was removed. The cells were resuspended in 5 mL of culture solution. The cell indensity is ensured as […].
Single cell sealing impedance and formation of whole-cell mode were automatically performed by Qpatch instrument. After obtaining the whole-cell recording mode, the cell was clamped at −80 mV. The cell first underwent pre-voltage of −50 mV for 50 msec, then underwent depolarization stimulation at +40 mV for 5 sec, and then underwent repolarization at −50 mV for 5 sec. and then the voltage returned to −80 mV. The cell underwent the stimulation at the voltage every 15 sec, and the data were recorded for 2 min, then extracellular fluid was administrated, and then the data were recorded for 5 min. Then, the administration process begun. The concentration of the test compound started from the lowest concentration, each test concentration was administrated for 2.5 min. At least three cells were tested for each concentration.
4.4.1 20 mM mother liquor of the compound was diluted with extracellular fluid, 5 uL of 20 mM mother liquor of the compound was added with 2495 uL of extracellular fluid to obtain a concentration of 40 uM (500-fold dilution). The solution was subjected to a 3-fold serial dilution with extracellular fluid containing 0.2% DMSO to obtain a required final concentration.
This concentration of DMSO had no effect on hERG potassium channel.
The experimental data was analyzed by XLFit software.

T1 sequence (P28482 whole entry): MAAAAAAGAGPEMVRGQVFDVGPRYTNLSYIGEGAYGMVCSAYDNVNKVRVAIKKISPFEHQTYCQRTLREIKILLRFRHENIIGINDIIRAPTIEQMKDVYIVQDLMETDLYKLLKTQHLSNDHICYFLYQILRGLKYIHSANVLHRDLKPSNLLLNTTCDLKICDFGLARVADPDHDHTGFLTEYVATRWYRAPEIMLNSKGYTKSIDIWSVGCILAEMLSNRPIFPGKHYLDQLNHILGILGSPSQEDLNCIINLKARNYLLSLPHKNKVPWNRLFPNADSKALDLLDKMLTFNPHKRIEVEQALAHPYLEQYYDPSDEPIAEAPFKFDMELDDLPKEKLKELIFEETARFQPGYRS

Row | IC50 (ERK-2 kinase) [nM] | IC50 [1] [nM] | SMILES | Inhibition effect on cardiac hERG potassium channel (hERG potassium channel) | IC50 (hERG potassium channel; CHO-hERG cells, highest test concentration 40 uM, read-out: hERG (inhibition effect on hERG current)) [nM]
1 | 0.17 | 123 | C[C@@H](NC(=O)c1cc2cc3c(-c4ccncc4)n[nH]c3cc2[nH]1)c1ccccc1 [Example 1, (R)—N-(1-phenylethyl)-3-(pyridin-4-yl)-1,7-dihydropyrrolo[3,2-f]indazole-6-carboxamide] | – | –
2 | 0.19 | 69.1 | C[C@@H](NC(=O)c1nc2cc3c(-c4ccncc4)n[nH]c3cc2[nH]1)c1ccccc1 [Example 2, (R)—N-(1-phenylethyl)-3-(pyridin-4-yl)-1,7-dihydroimidazo[4,5-f]indazole-6-carboxamide] | no inhibition effect | > 40000
